{"source": "patent US20260138990A1", "about": "“TRICYCLIC FUSED IMIDAZOLE COMPOUNDS AS CD38 MODULATORS AND USES THEREOF” (AEOVIAN PHARMACEUTICALS, INC., priority 2023, published 2026)", "key": {"[1]": {"biological_target": "T1, mouse CD38 (Mus musculus, UniProt P56528)", "T1 construct": "purchased Bio-Techne GmbH 4947-AC", "T1 sequence (P56528 1-304)": "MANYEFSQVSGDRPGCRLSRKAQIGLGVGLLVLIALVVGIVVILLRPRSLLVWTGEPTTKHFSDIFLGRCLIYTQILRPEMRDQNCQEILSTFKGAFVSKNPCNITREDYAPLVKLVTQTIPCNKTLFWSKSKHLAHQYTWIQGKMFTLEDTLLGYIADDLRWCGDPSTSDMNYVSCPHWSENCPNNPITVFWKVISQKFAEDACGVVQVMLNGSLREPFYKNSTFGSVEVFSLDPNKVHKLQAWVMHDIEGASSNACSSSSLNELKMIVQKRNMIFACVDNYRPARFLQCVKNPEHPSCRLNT", "test": "NAD+ cyclase activity assay with mouse recombinant CD38 protein (ε-NAD fluorescence)", "type": "biochemical", "details": "0.6 nM mouse CD38, substrate ε-NAD, 30 min preincubation, fluorescence 300/410 nm", "summary_of_the_method": "(§1)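 Twelve-point threefold compound dilutions were given 30 min at room temperature with 0.6 nM mouse or 1.9 nM human CD38 before […] ε-NAD was added (pH 7.5 HEPES/sucrose/Tween buffer). The rate came from the linear-phase slope of ex 300/em 410 nm fluorescence against vehicle and no-CD38 controls.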"}, "[2]": {"biological_target": "T2, human CD38 (Homo sapiens, UniProt P28907)", "T2 construct": "purchased Bio-Techne GmbH AVI2404", "T2 sequence (P28907 1-300)": "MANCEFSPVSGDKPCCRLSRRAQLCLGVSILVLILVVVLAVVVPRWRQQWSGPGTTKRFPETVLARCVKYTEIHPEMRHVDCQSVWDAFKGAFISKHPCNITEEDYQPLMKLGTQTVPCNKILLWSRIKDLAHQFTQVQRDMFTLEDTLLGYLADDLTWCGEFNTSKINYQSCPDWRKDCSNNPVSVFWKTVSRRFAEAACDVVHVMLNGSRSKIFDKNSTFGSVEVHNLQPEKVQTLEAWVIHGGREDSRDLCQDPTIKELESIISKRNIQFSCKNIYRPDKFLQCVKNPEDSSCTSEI", "test": "NAD+ cyclase activity assay with human recombinant CD38 protein (ε-NAD fluorescence)", "type": "biochemical", "details": "1.9 nM human CD38, substrate ε-NAD, 30 min preincubation, fluorescence 300/410 nm", "summary_of_the_method": "as §1"}}}
{"molecule": "O=C(N[C@H]1CC[C@@H](N2CC(F)(F)C2)CC1)c1ccc2c(c1)-c1cncn1CCO2", "note": "[Compound 64A, N-((1s,4s)-4-(3,3-Difluoroazetidin-1-yl)cyclohexyl)-5,6-dihydrobenzo[f]imidazo[1,5-d][1,4]oxazepine-10-carboxamide]", "values": [{"measurement": "IC50", "setting": "[1]", "result": "0.01 to 0.1", "unit": "µM"}, {"measurement": "IC50", "setting": "[2]", "result": "0.1 to 1", "unit": "µM"}]}
{"molecule": "O=C(N[C@H]1CCC(F)(F)C1)c1ccc2c(c1)-c1cncn1CCO2", "note": "[Compound 93A, (S)—N-(3,3-Difluorocyclopentyl)-5,6-dihydrobenzo[f]imidazo[1,5-d][1,4]oxazepine-10-carboxamide]", "values": [{"measurement": "IC50", "setting": "[1]", "result": "0.001 to 0.01", "unit": "µM"}, {"measurement": "IC50", "setting": "[2]", "result": "< 0.03", "unit": "µM"}]}
{"molecule": "C[C@@H](N[C@H]1CC[C@H](NC(=O)c2ccc3c(c2)-c2cncn2CCO3)CC1)C(F)(F)F", "note": "[Compound 74A, N-((1r,4r)-4-(((R)-1,1,1-Trifluoropropan-2-yl)amino)cyclohexyl)-5,6-dihydrobenzo[f]imidazo[1,5-d][1,4]oxazepine-10-carboxamide]", "values": [{"measurement": "IC50", "setting": "[1]", "result": "0.001 to 0.01", "unit": "µM"}, {"measurement": "IC50", "setting": "[2]", "result": "0.03 to 0.1", "unit": "µM"}]}
{"molecule": "CC1(NC(=O)c2cc(F)c3c(c2)-c2cncn2CCO3)CCS(=O)(=O)C1", "note": "(stereo not shown) [Compound 169A, 8-Fluoro-N-(3-methyl-1,1-dioxidotetrahydrothiophen-3-yl)-5,6-dihydrobenzo[f]imidazo[1,5-d][1,4]oxazepine-10-carboxamide]", "values": [{"measurement": "IC50", "setting": "[1]", "result": "0.01 to 0.1", "unit": "µM"}, {"measurement": "IC50", "setting": "[2]", "result": "0.03 to 0.1", "unit": "µM"}]}
{"molecule": "CC1(NC(=O)c2cc(F)c3c(c2)-c2cncn2CCO3)CCCCC1", "note": "[Compound 162A, 8-Fluoro-N-(1-methylcyclohexyl)-5,6-dihydrobenzo[f]imidazo[1,5-d][1,4]oxazepine-10-carboxamide]", "values": [{"measurement": "IC50", "setting": "[1]", "result": "0.01 to 0.1", "unit": "µM"}, {"measurement": "IC50", "setting": "[2]", "result": "0.03 to 0.1", "unit": "µM"}]}
{"molecule": "O=C(N[C@H]1CC[C@@H](OC2CC(F)(F)C2)CC1)c1cc(Cl)c2c(c1)-c1cncn1CCO2", "note": "[Compound 173A, N-((1s,4s)-4-(3,3-difluorocyclobutoxy)cyclohexyl)-8-chloro-5,6-dihydrobenzo[f]imidazo[1,5-d][1,4]269xazepane-10-carboxamide]", "values": [{"measurement": "IC50", "setting": "[1]", "result": "0.01 to 0.1", "unit": "µM"}, {"measurement": "IC50", "setting": "[2]", "result": "0.1 to 1", "unit": "µM"}]}
{"molecule": "CNC(=O)[C@H]1CC[C@H](NC(=O)c2ccc3c(c2)-c2cncn2CCO3)CC1", "note": "[Compound 17A, N-((1r,4r)-4-(Methylcarbamoyl)cyclohexyl)-5,6-dihydrobenzo[f]imidazo[1,5-d][1,4]oxazepine-10-carboxamide]", "values": [{"measurement": "IC50", "setting": "[1]", "result": "< 0.001", "unit": "µM"}, {"measurement": "IC50", "setting": "[2]", "result": "< 0.03", "unit": "µM"}]}
{"molecule": "O=C(N[C@H]1CC[C@H](NCCC(F)(F)F)CC1)c1ccc2c(c1)-c1cncn1CCO2", "note": "[Compound 110A, N-((1r,4r)-4-((3,3,3-Trifluoropropyl)amino)cyclohexyl)-5,6-dihydrobenzo[f]imidazo[1,5-d][1,4]oxazepine-10-carboxamide]", "values": [{"measurement": "IC50", "setting": "[1]", "result": "0.001 to 0.01", "unit": "µM"}, {"measurement": "IC50", "setting": "[2]", "result": "0.03 to 0.1", "unit": "µM"}]}
{"molecule": "O=C(N[C@H]1CC[C@H](N2CC(C(F)(F)F)C2)CC1)c1ccc2c(c1)-c1cncn1CCO2", "note": "[Compound 107A, N-((1r,4r)-4-(3-(Trifluoromethyl)azetidin-1-yl)cyclohexyl)-5,6-dihydrobenzo[f]imidazo[1,5-d][1,4]oxazepine-10-carboxamide]", "values": [{"measurement": "IC50", "setting": "[1]", "result": "0.001 to 0.01", "unit": "µM"}, {"measurement": "IC50", "setting": "[2]", "result": "0.03 to 0.1", "unit": "µM"}]}
{"molecule": "O=C(N[C@H]1CC[C@H](OCCC(F)F)CC1)c1ccc2c(c1)-c1cncn1CCO2", "note": "[Compound 78A, N-((1r,4r)-4-(3,3-Difluoropropoxy)cyclohexyl)-5,6-dihydrobenzo[f]imidazo[1,5-d][1,4]oxazepine-10-carboxamide]", "values": [{"measurement": "IC50", "setting": "[1]", "result": "> 0.1", "unit": "µM"}, {"measurement": "IC50", "setting": "[2]", "result": "0.1 to 1", "unit": "µM"}]}
{"molecule": "O=C(N[C@@H]1CCCOC1)c1cc(F)c2c(c1)-c1cncn1CCO2", "note": "[Compound 130A, (R)-8-Fluoro-N-(tetrahydro-2H-pyran-3-yl)-5,6-dihydrobenzo[f]imidazo[1,5-d][1,4]oxazepine-10-carboxamide]", "values": [{"measurement": "IC50", "setting": "[1]", "result": "0.001 to 0.01", "unit": "µM"}, {"measurement": "IC50", "setting": "[2]", "result": "0.03 to 0.1", "unit": "µM"}]}
{"molecule": "O=C(N[C@H]1CC[C@H](NC2CCC2(F)F)CC1)c1ccc2c(c1)-c1cncn1CCO2", "note": "(stereo partly shown) [Compound 82A, N-((1r,4r)-4-((2,2-Difluorocyclobutyl)amino)cyclohexyl)-5,6-dihydrobenzo[f]imidazo[1,5-d][1,4]oxazepine-10-carboxamide]", "values": [{"measurement": "IC50", "setting": "[1]", "result": "0.001 to 0.01", "unit": "µM"}, {"measurement": "IC50", "setting": "[2]", "result": "< 0.03", "unit": "µM"}]}
{"molecule": "CC1(F)CC(NC(=O)c2cc(F)c3c(c2)-c2cncn2CCO3)C1", "note": "(stereo not shown) [Compound 138A, 8-Fluoro-N-(3-fluoro-3-methylcyclobutyl)-5,6-dihydrobenzo[f]imidazo[1,5-d][1,4]oxazepine-10-carboxamide]", "values": [{"measurement": "IC50", "setting": "[1]", "result": "0.001 to 0.01", "unit": "µM"}, {"measurement": "IC50", "setting": "[2]", "result": "< 0.03", "unit": "µM"}]}
{"molecule": "N-((1r,4r)-4-((Tetrahydrofuran-2-yl)methoxy)cyclohexyl)-5,6-dihydrobenzo[f]imidazo[1,5-d][1,4]oxazepine-10-carboxamide [Compound 76A]", "values": [{"measurement": "IC50", "setting": "[1]", "result": "0.001 to 0.01", "unit": "µM"}, {"measurement": "IC50", "setting": "[2]", "result": "< 0.03", "unit": "µM"}]}
{"molecule": "O=C(Nc1ccc2c(c1)OCCO2)c1ccc2c(c1)-c1cncn1CCO2", "note": "[Compound 8A, N-(2,3-Dihydrobenzo[b][1,4]dioxin-6-yl)-5,6-dihydrobenzo[f]imidazo[1,5-d][1,4]oxazepine-10-carboxamide]", "values": [{"measurement": "IC50", "setting": "[1]", "result": "0.001 to 0.01", "unit": "µM"}, {"measurement": "IC50", "setting": "[2]", "result": "< 0.03", "unit": "µM"}]}
{"molecule": "O=C(Nc1ccc2ncsc2c1)c1ccc2c(c1)-c1cncn1CCO2", "note": "[Compound 41A, N-(Benzo[d]thiazol-6-yl)-5,6-dihydrobenzo[f]imidazo[1,5-d][1,4]oxazepine-10-carboxamide]", "values": [{"measurement": "IC50", "setting": "[1]", "result": "0.001 to 0.01", "unit": "µM"}, {"measurement": "IC50", "setting": "[2]", "result": "< 0.03", "unit": "µM"}]}
{"molecule": "C[C@@H]1CCC[C@H](C)[C@H]1NC(=O)c1cc(F)c2c(c1)-c1cncn1CCO2", "note": "[Compound 176A, N-(trans-2-trans-6-Dimethylcyclohexyl)-8-fluoro-5,6-dihydrobenzo[f]imidazo[1,5-d][1,4]oxazepine-10-carboxamide]", "values": [{"measurement": "IC50", "setting": "[1]", "result": "0.001 to 0.01", "unit": "µM"}, {"measurement": "IC50", "setting": "[2]", "result": "< 0.03", "unit": "µM"}]}
{"molecule": "COCCO[C@H]1CC[C@H](NC(=O)c2cc(F)c3c(c2F)-c2cncn2CCO3)CC1", "note": "[Compound 91A, 8,11-Difluoro-N-((1r,4r)-4-(2-methoxyethoxy)cyclohexyl)-5,6-dihydrobenzo[f]imidazo[1,5-d][1,4]oxazepine-10-carboxamide]", "values": [{"measurement": "IC50", "setting": "[1]", "result": "0.001 to 0.01", "unit": "µM"}, {"measurement": "IC50", "setting": "[2]", "result": "0.03 to 0.1", "unit": "µM"}]}
{"molecule": "O=C(N[C@@H]1CCC(F)(F)C1)c1ccc2c(c1)-c1cncn1CCO2", "note": "[Compound 92A, (R)—N-(3,3-Difluorocyclopentyl)-5,6-dihydrobenzo[f]imidazo[1,5-d][1,4]oxazepine-10-carboxamide]", "values": [{"measurement": "IC50", "setting": "[1]", "result": "0.001 to 0.01", "unit": "µM"}, {"measurement": "IC50", "setting": "[2]", "result": "< 0.03", "unit": "µM"}]}
{"molecule": "O=C(N[C@@H]1CCCOC1)c1ccc2c(c1)-n1cncc1CCO2", "note": "[Compound 15A, (R)—N-(Tetrahydro-2H-pyran-3-yl)-4,5-dihydrobenzo[b]imidazo[1,5-d][1,4]oxazepine-9-carboxamide]", "values": [{"measurement": "IC50", "setting": "[1]", "result": "> 0.1", "unit": "µM"}, {"measurement": "IC50", "setting": "[2]", "result": "> 1", "unit": "µM"}]}
{"molecule": "O=C(N[C@H]1CC[C@H](CO)CC1)c1ccc2c(c1)-c1cncn1CCO2", "note": "[Compound 65A, N-((1r,4r)-4-(Hydroxymethyl)cyclohexyl)-5,6-dihydrobenzo[f]imidazo[1,5-d][1,4]oxazepine-10-carboxamide]", "values": [{"measurement": "IC50", "setting": "[1]", "result": "< 0.001", "unit": "µM"}, {"measurement": "IC50", "setting": "[2]", "result": "< 0.03", "unit": "µM"}]}
{"molecule": "O=C(N[C@@H]1CCCC(F)(F)C1)c1ccc2c(c1)-c1cncn1CCO2", "note": "[Compound 116A, (R)—N-(3,3-Difluorocyclohexyl)-5,6-dihydrobenzo[f]imidazo[1,5-d][1,4]oxazepine-10-carboxamide]", "values": [{"measurement": "IC50", "setting": "[1]", "result": "< 0.001", "unit": "µM"}, {"measurement": "IC50", "setting": "[2]", "result": "< 0.03", "unit": "µM"}]}
{"molecule": "COCCO[C@H]1CC[C@H](NC(=O)c2cc(F)c3c(c2)-c2cncn2CCO3)CC1", "note": "[Compound 57A, 8-Fluoro-N-((1r,4r)-4-(2-methoxyethoxy)cyclohexyl)-5,6-dihydrobenzo[f]imidazo[1,5-d][1,4]oxazepine-10-carboxamide]", "values": [{"measurement": "IC50", "setting": "[1]", "result": "< 0.001", "unit": "µM"}, {"measurement": "IC50", "setting": "[2]", "result": "< 0.03", "unit": "µM"}]}
